The test system of this data set is CCRIS mutagenicity, Ames/micronucleus/aberration tests. The data set is described as follows: CCRIS mutagenicity studies.
Setting [1] is: Test System: AMES SALMONELLA TYPHIMURIUM, Strain/Indicator: TA1535, Metabolic Activation: NONE, Method: STANDARD PLATE.
Where [2] appears, read: Test System: AMES SALMONELLA TYPHIMURIUM, Strain/Indicator: TA98, Metabolic Activation: NONE, Method: PREINCUBATION
[3] abbreviates: Test System: AMES SALMONELLA TYPHIMURIUM, Strain/Indicator: TA100, Metabolic Activation: NONE, Method: PREINCUBATION

The text below walks through data of PubChem BioAssay AID1259407 (Chemical Carcinogenesis Research Information System (CCRIS), 2018).

Molecules are shown by their SMILES. Calls of active or inactive are those of the source. How the calls were made is not given here.

As for `CC(C)C[C@H]1C(=O)N2CCC[C@H]2[C@]2(O)O[C@](NC(=O)[C@@H]3C[C@@H]4c5cccc6[nH]cc(c56)C[C@H]4N(C)C3)(C(C)C)C(=O)N12`, the mutagenic call by setting is: (Test System: AMES SALMONELLA TYPHIMURIUM, Strain/Indicator: TA98, Metabolic Activation: NONE, Method: STANDARD PLATE) “inactive; negative”; (Test System: AMES SALMONELLA TYPHIMURIUM, Strain/Indicator: TA98, Metabolic Activation: RAT, LIVER, S-9, AROCLOR 1254, Method: STANDARD PLATE) “inactive; negative”; (Test System: AMES SALMONELLA TYPHIMURIUM, Strain/Indicator: TA100, Metabolic Activation: NONE, Method: STANDARD PLATE) “inactive; negative”; (Test System: AMES SALMONELLA TYPHIMURIUM, Strain/Indicator: TA100, Metabolic Activation: RAT, LIVER, S-9, AROCLOR 1254, Method: STANDARD PLATE) “inactive; negative”; under setting [1], “inactive; negative”; (Test System: AMES SALMONELLA TYPHIMURIUM, Strain/Indicator: TA1535, Metabolic Activation: RAT, LIVER, S-9, AROCLOR 1254, Method: STANDARD PLATE) “inactive; negative”. The mutagenic call is “inactive; negative” (Test System: AMES SALMONELLA TYPHIMURIUM, Strain/Indicator: TA1537, Metabolic Activation: NONE, Method: STANDARD PLATE); “inactive; negative” (Test System: AMES SALMONELLA TYPHIMURIUM, Strain/Indicator: TA1537, Metabolic Activation: RAT, LIVER, S-9, AROCLOR 1254, Method: STANDARD PLATE); “inactive; negative” (Test System: AMES SALMONELLA TYPHIMURIUM, Strain/Indicator: TA1538, Metabolic Activation: NONE, Method: STANDARD PLATE); “inactive; negative” (Test System: AMES SALMONELLA TYPHIMURIUM, Strain/Indicator: TA1538, Metabolic Activation: RAT, LIVER, S-9, AROCLOR 1254, Method: STANDARD PLATE); “inactive; negative” (Test System: MOUSE LYMPHOMA, Strain/Indicator: L5178Y (TK+/TK-), Metabolic Activation: NONE, Method: SUSPENSION/PLATE); “inactive; negative” (Test System: MOUSE LYMPHOMA, Strain/Indicator: L5178Y (TK+/TK-), Metabolic Activation: RAT, LIVER, S-9, AROCLOR 1254, Method: SUSPENSION/PLATE). Besides, the mutagenic call (Test System: UDS RAT HEPATOCYTES, Strain/Indicator: THY INCORP, Metabolic Activation: NONE) is “inactive; negative”.

In the case of `CCCCCCCCCCOC[N+](C)(C)CCCCCCCC`, the mutagenic call reads like this: (Test System: BACILLUS SUBTILIS, Strain/Indicator: H17/REC, Metabolic Activation: NONE, Method: STANDARD PLATE) “inactive; negative”; (Test System: BACILLUS SUBTILIS, Strain/Indicator: M45, Metabolic Activation: NONE, Method: STANDARD PLATE) “inactive; negative”.

Turning to `O=Cc1cccc(Cl)c1`, the mutagenic call is, setting by setting: under setting [2], “inactive; negative”; (Test System: AMES SALMONELLA TYPHIMURIUM, Strain/Indicator: TA98, Metabolic Activation: RAT LIVER S-9, PCB, Method: PREINCUBATION) “inactive; negative”; under setting [3], “inactive; negative”; (Test System: AMES SALMONELLA TYPHIMURIUM, Strain/Indicator: TA100, Metabolic Activation: RAT LIVER S-9, PCB, Method: PREINCUBATION) “inactive; negative”; (Test System: AMES SALMONELLA TYPHIMURIUM, Strain/Indicator: TA104, Metabolic Activation: NONE, Method: PREINCUBATION) “inactive; negative”; (Test System: AMES SALMONELLA TYPHIMURIUM, Strain/Indicator: TA104, Metabolic Activation: RAT LIVER S-9, PCB, Method: PREINCUBATION) “inactive; negative”. For the same compound, the mutagenic call was “inactive; negative” (Test System: E.COLI, Strain/Indicator: WP2 UVRA, Metabolic Activation: NONE, Method: PREINCUBATION) and “inactive; negative” (Test System: E.COLI, Strain/Indicator: WP2 UVRA, Metabolic Activation: RAT LIVER S-9, PCB, Method: PREINCUBATION).

On to `CCNCCN`, for which the mutagenic call is “inactive; negative” under setting [2]; “inactive; negative” (Test System: AMES SALMONELLA TYPHIMURIUM, Strain/Indicator: TA98, Metabolic Activation: RAT LIVER S-9, PHENOBARBITAL AND BETA-NAPHTHOFLAVONE, Method: PREINCUBATION); “inactive; negative” under setting [3]; “inactive; negative” (Test System: AMES SALMONELLA TYPHIMURIUM, Strain/Indicator: TA100, Metabolic Activation: RAT LIVER S-9, PHENOBARBITAL AND BETA-NAPHTHOFLAVONE, Method: PREINCUBATION); “inactive; negative” (Test System: AMES SALMONELLA TYPHIMURIUM, Strain/Indicator: TA1535, Metabolic Activation: NONE, Method: PREINCUBATION); “inactive; negative” (Test System: AMES SALMONELLA TYPHIMURIUM, Strain/Indicator: TA1535, Metabolic Activation: RAT LIVER S-9, PHENOBARBITAL AND BETA-NAPHTHOFLAVONE, Method: PREINCUBATION). Besides, the mutagenic call (Test System: AMES SALMONELLA TYPHIMURIUM, Strain/Indicator: TA1537, Metabolic Activation: NONE, Method: PREINCUBATION) was “inactive; negative”; the mutagenic call (Test System: AMES SALMONELLA TYPHIMURIUM, Strain/Indicator: TA1537, Metabolic Activation: RAT LIVER S-9, PHENOBARBITAL AND BETA-NAPHTHOFLAVONE, Method: PREINCUBATION) is “inactive; negative”; the mutagenic call (Test System: AMES SALMONELLA TYPHIMURIUM, Strain/Indicator: TA1538, Metabolic Activation: NONE, Method: PREINCUBATION) was “inactive; negative”; the mutagenic call (Test System: AMES SALMONELLA TYPHIMURIUM, Strain/Indicator: TA1538, Metabolic Activation: RAT LIVER S-9, PHENOBARBITAL AND BETA-NAPHTHOFLAVONE, Method: PREINCUBATION) is “inactive; negative”; the mutagenic call (Test System: E.COLI, Strain/Indicator: WP2UVRA, Metabolic Activation: NONE, Method: PREINCUBATION) was “inactive; negative”; the mutagenic call (Test System: E.COLI, Strain/Indicator: WP2UVRA, Metabolic Activation: RAT LIVER S-9, PHENOBARBITAL AND BETA-NAPHTHOFLAVONE, Method: PREINCUBATION) was “inactive; negative”.

As for `O=C(O)/C=C/C=C/CO`, where the note is “Test System: CHINESE HAMSTER V-79, Strain/Indicator: V-79 (HGPRT)/8-AZAGUANINE, Metabolic Activation: NONE”, the mutagenic call is “inactive; negative”.

Regarding `NC(=O)CNC(=O)N(CCCl)N=O`, the mutagenic call under setting [1] is “active; positive”.

`CC1CC(C(C)C(C)(C)O)O[C@H]2C[C@@]3(C)[C@@H]4CC[C@H]5C(C)(C)C(=O)CC[C@@]56C[C@@]46CC[C@]3(C)[C@@H]12` (stereo partly drawn): the mutagenic call (End Point: IN VITRO MICRONUCLEUS, Test System: HUMAN PERIPHERAL LYMPHOCYTES, Metabolic Activation: NONE) was “inactive; negative”.
